Like-named read-outs stand apart in the source and are kept apart here.
Legend:
[1] = biological target: ATF2 (ProQinase) (Homo sapiens (Human)) (UniProt P15336)
[2] = test system: Fibroblast-like synoviocytes (FLS) from patients with rheumatoid arthritis; assay: inflammatory mediators (IL6, IL8, MCP-1) by ELISA in FLS stimulated with TNF-alpha; format: cell-based, human; settings: for % of inflammatory mediators production in the presence of compounds, IL6 / % of inflammatory mediators production in the presence of compounds, IL8 / % of inflammatory mediators production in the presence of compounds, MCP-1: synoviocytes, TNFa + compound 100 uM
Protocol: Fibroblast-like synoviocytes (FLS) from patients with rheumatoid arthritis (RA) were obtained at the time of synovectomy or joint replacement. All RA patients fulfilled the American College of Rheumatology […] criteria for the diagnosis of RA (Arnett FC y cols. 1988 Arthritis Rheum 31(3):315-24).
Synovial tissue was minced and incubated with 10 μg/ml collagenase in serum-free Dulbecco modified Eagle medium (DMEM; Gibco Invitrogen, Barcelona, Spain) for 3 h at 37° C. After digestion, FLS were filtered through a nylon cell strainer (BD Falcon, Franklin Lakes, USA), washed extensively, and cultured in DMEM supplemented with 10% v/v fetal calf serum, 1% penicillin-streptomycin, and 1% L-glutamine (all reagents from PAA, Laboratories GmbH) in a humidified 5% C02 atmosphere. Adherent cells at 80-90% confluence were trypsinised and diluted at a split ratio of 1:3. FLS from 4 patients and between passages 3 to 8 were used for all experiments.
Enzyme-Linked Immunosorbent Assay (ELISA): RA FLS (1×10^4 cells/well) were cultured in DMEM 1% FCS in 96 well plates and treated with p-p38 inhibitors for 1 h. After, they were stimulated with TNF-α (10 ng/ml, Sigma Aldrich) and both treatments were present in the culture throughout the experiment. The supernatants were harvested at 18 h after treatment and assayed for IL6, IL8/CXCL8 and monocyte chemoattractant protein (MCP)-1/CCL2 by ELISA according to the manufacturer's instructions (BD Bioscience, San Jose, Calif., USA).

[3] = biological target: T1, p38alpha (Homo sapiens, UniProt Q16539); assay: p38 cascade kinase reaction (inactive p38alpha, MKK6, ATF2, ADP-Glo); format: biochemical; settings: for inhibition at 100 µM: compound 100 μM; for inhibition at 10 µM: compound 10 μM
T1 construct: purchased Invitrogen PV3305
T1 sequence (Q16539 whole entry): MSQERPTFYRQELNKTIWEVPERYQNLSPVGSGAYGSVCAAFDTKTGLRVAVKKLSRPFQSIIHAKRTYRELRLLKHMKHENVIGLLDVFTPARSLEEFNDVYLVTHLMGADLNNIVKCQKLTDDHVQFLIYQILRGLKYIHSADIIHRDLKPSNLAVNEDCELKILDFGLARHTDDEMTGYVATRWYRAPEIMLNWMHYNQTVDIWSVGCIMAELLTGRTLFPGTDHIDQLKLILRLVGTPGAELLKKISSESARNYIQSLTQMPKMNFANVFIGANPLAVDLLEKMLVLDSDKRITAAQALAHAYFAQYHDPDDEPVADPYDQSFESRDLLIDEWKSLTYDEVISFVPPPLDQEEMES
Protocol: Purified recombinant activated p38alpha (10 nM)(ProQinase) was preincubated 10 minutes at 30° C. with the compound of interest at concentrations between 1 and 100 µM in duplicate in a final volume of 30 ul of kinase buffer (Hepes 60 mM pH 7.5, MgCl2 3 mM, MnCl2 3 mM, Sodium Orthovanadate 3 μM, DTT 1.2 mM). After preincubation, peptide substrate (SignalChem #P03-58) and ATP were added to a final concentration of 10 μM and 100 μM respectively, and then incubated 40 minutes at 30° C. for the kinase reaction. Phosphorylation was analyzed with ADP-GloM (Promega #V9101) and emitted luminescence was measured with BMG Fluostar microplate reader.
(§1) After preincubation, MKK6 (ProQinase), ATF2 (ProQinase) and ATP were added to a final concentration of 10 nM, 5 μM and 10 μM respectively, then incubated 40 minutes at 30° C. and analyzed with ADP-Glo™.

[4] = biological target: p38αR186A (Homo sapiens)
[5] = biological target: p38αR189A (Homo sapiens)
[6] = biological target: T2, p38αR186A (Homo sapiens, UniProt Q16539, R186A); assay: site-mutated p38 phosphorylation cascade assay, R186A mutant; format: biochemical; settings: compound 10 uM
T2 construct: made in house; host or cells: E. coli XL10-Gold
T2 sequence (Q16539 whole entry R186A): as the sequence (Q16539 whole entry) above, with R186A counted along it
Protocol: as §1
(§2) Replacement of specific residues arginine 186 and 189 of p38α (pGEX4T-1-p38α) for alanine was performed with the QuikChange Lightining Site-Directed Mutagenesis Kit (Agilent Technologies). The following oligonucleotides were used for the arginine 186 to alanine substitution: forward primer: 5′-SEQ ID NO 7-3′; reverse primer: 5′-SEQ ID NO 8-3′. Oligonucleotides used for the arginine 189 to alanine substitution were: forward primer: 5′-SEQ ID NO 9-3′; reverse primer: 5′-SEQ ID NO 10-3′. Mutations were validated by sequencing (Genomic Unit, Parque Cientifico de Madrid). E. coli XL10-Gold ultracompentent cells (Agilent Technologies) were transformed with the vector plasmids containing p38αWT and mutants. For the expression of recombinant p38α transformed cells were cultured overnight at 37° C. in 50 ml of fresh LB medium containing ampicillin (100 μg/ml). After that, culture was diluted in fresh LB to A595=0.4 and grown for approximately 1 h at 37° C. until exponential growth and then induced with Isopropyl-β-D-thiogalactopyranoside (IPTG) 1 mM for 5 h. The cells were collected by centrifugation and cell pellet were resuspended in 50 ml of cold lysis buffer: PBS pH 7.4, EDTA 10 mM, PMSF 1 mM, Benzamidine 0.2 mM, DTT 5 mM, Triton X-100 1% and Lysozyme 1 mg/ml. The soluble and insoluble fractions were separated by centrifugation (16,000 g for 20 min). The soluble fraction was incubated for 2 hours with 1 ml of pre-equilibrated Glutathione Sepharose 4B (GE Healthcare) and the resin was extensively washed in a column with 200 ml of binding buffer: PBS, PMSF 1 mM and benzamidine 0.2 mM. Proteins were eluted with 1 ml of Tris-HCl 50 mM pH 8.0 and reduced glutathione 20 mM. 20% glycerol was added to purified proteins and stored at −80° C. Protein concentration and purity was assessed by SDS-PAGE. Kinase activity was measured by ADP-glo kit using MKK6 as activator and ATF2 as substrate. Activity recorded for p38αR186A and p38αR189A were 15.5% and 4.8%, respectively (n=4) related to wild type protein.

[7] = test system: TNF-α secretion, THP-1 cells; assay: Inhibition of TNF-α secretion by LPS-stimulated THP-1; format: cell-based; settings: Homo sapiens, THP-1, 3 h, monocytes with LPS, read-out: TNF abetment
Protocol: Inhibition of TNF-α Secretion by a Human Monocytic Cell Line, THP-1.
THP-1 cells, growing in log phase, were collected by centrifugation and resuspended in RPMI 1640 (Sigma Aldrich), to a final cell concentration of 2×10^6 cells/ml. Cells were plated into 24-well plates (BD Biosciences). Dilutions of compounds in dimethyl sulfoxide (DMSO) were added to the culture to a final concentration M. The final DMSO concentration was 0.5%. The cells […] suspensions were preincubated with compounds for 1 h at 37° C. in a 5% C02 humidified atmosphere before the addition of LPS (Sigma Aldrich, L2654) to a final concentration of 2 μg/ml. After that, cells were incubated for 3 h followed by centrifugation to pellet cells. Cell supernatants were stored at 4° C. until Human analysis for TNF-α content. TNF-α levels were determined by ELISA (TNF Biotrak, GE Healthcare) following the manufacturer's directions. The percentage inhibition was calculated for each compound concentration tested, and the IC50 was calculated for each compound.

[8] = test system: THP-1 cells; assay: survival of monocytes with LPS; format: cell-based, human
[9] = biological target: T3, p38alpha wt (Homo sapiens, UniProt Q16539); assay: site-mutated p38 phosphorylation cascade assay, wild type; format: biochemical; settings: compound 10 uM
T3 construct: made in house; host or cells: E. coli XL10-Gold
T3 sequence (Q16539 whole entry): as the sequence (Q16539 whole entry) above
Protocol: as §1, §2

[10] = biological target: T1, p38alpha; assay: p38 cascade kinase reaction (inactive p38alpha, MKK6, ATF2, ADP-Glo); format: biochemical; settings: ATP 100 μM; compound 10 μM; n=4; read-out: inhibition, ATP-site competitive assay, cascade p38alpha/ATF-2
[11] = biological target: p38beta (Homo sapiens, UniProt Q15759); assay: p38 cascade kinase reaction, p38beta/ATF-2; format: biochemical
p38beta, sequence (Q15759 whole entry): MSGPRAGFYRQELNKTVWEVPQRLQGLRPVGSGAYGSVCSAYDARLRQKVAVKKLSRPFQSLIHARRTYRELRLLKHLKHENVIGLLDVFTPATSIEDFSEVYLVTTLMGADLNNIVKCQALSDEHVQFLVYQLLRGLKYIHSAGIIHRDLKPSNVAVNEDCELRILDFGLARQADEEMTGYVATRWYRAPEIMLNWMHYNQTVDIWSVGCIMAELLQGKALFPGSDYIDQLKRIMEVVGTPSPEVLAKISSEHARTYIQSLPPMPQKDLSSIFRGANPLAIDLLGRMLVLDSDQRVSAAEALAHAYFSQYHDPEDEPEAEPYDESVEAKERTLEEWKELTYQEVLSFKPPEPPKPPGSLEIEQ
Protocol: as §1

[12] = biological target: T4, p38αR189A (Homo sapiens, UniProt Q16539, R189A); assay: site-mutated p38 phosphorylation cascade assay, R189A mutant; format: biochemical; settings: compound 10 uM
T4 construct: made in house; host or cells: E. coli XL10-Gold
T4 sequence (Q16539 whole entry R189A): as the sequence (Q16539 whole entry) above, with R189A counted along it
Protocol: as §1, §2

[13] = read-out: inhibition p38a/ATF-2 (p38 cascade)
[14] = FLS sample R 2, compound 100 μM
[15] = FLS sample R 6, compound 100 μM
[16] = FLS sample R 8, compound 100 μM
[17] = FLS sample SH203, compound 100 μM
[18] = mean of 4 FLS samples, compound 100 μM
[19] = dose response table, read-out: inhibition p38alpha/ATF-2

In the case of p38αR189A (enzyme), the kinase activity (ADP-glo kit) (% related to wild type protein) [1] is reported as 4.8.
In the case of `OCCOc1nc(OCCO)nc(OCCO)n1` [Compound 8], the “% of inflammatory mediators production in the presence of compounds, IL6” value [2] is reported as 66.5%, the “% of inflammatory mediators production in the presence of compounds, IL8” value [2] is reported as 83.4% and the “% of inflammatory mediators production in the presence of compounds, MCP-1” value [2] is reported as 75.4%. It also gave an inhibition at 100 µM [3, 13] of 20%.
“MKK6 (ProQinase) (from UniProt P52564) (enzyme)” was tested, and the kinase activity of the cascade MKK6/p38α/ATF2 (ADP-glo kit) (% related to wild type protein) [4] was 15.5 and the kinase activity of the cascade MKK6/p38α/ATF2 (ADP-glo kit) (% related to wild type protein) [5] was 4.8.
For p38αR186A (enzyme), the kinase activity (ADP-glo kit) (% related to wild type protein) [1] was 15.5.
For `COc1ccccc1NC(=O)C[C@H](NCCCO)C(=O)O` [Compound 3], the inhibition at 100 µM [3, 13] was 17%.
`O=S(=O)(c1cnccc1N1CCN(CCO)CC1)N1CCOCC1` [Compound 11] gave an inhibition at 10 µM [3, 13] of 1%.
For `Oc1nc(N/N=C/c2ccc3c(c2)OCO3)nc(N2CCOCC2)n1` [Compound 7], the inhibition at 10 µM [3, 13] was 16%.
`Nc1ccc(OCC(O)C[n+]2ccc(CCS(=O)(=O)[O-])cc2)cc1` (stereo not drawn) [Compound 4] was tested, and the inhibition at 10 µM [3, 13] was 8%.
`CCOC(=O)c1ccc(Nc2nc3nonc3nc2N2CCC(Cc3ccccc3)CC2)cc1` [Compound 1] showed an inhibition at 10 µM [6] of 20%, an inhibition at 1 µM [7] of 9% and an inhibition at 10 µM [7] of 40%. For the same compound, the Cell survival ([8]; 1 uM) was 96%, the Cell survival ([8]; 10 uM) was 93% and the inhibition at 10 µM [9] was 64%. The “IL-6, % of TNF-α control” value [2, 14] was 13.8%, the “IL-8, % of TNF-α control” value [2, 14] was 27.3% and the “MCP-1, % of TNF-α control” value [2, 14] was 2.1%. The “IL-6, % of TNF-α control” value [2, 15] was 8.1%, the “IL-8, % of TNF-α control” value [2, 15] was 4.8% and the “MCP-1, % of TNF-α control” value [2, 15] was 0.0%. The “IL-6, % of TNF-α control” value [2, 16] was 23.5%, the “IL-8, % of TNF-α control” value [2, 16] was 67.4% and the “MCP-1, % of TNF-α control” value [2, 16] was 22.5%. The “IL-6, % of TNF-α control” value [2, 17] was 101.4%, the “IL-8, % of TNF-α control” value [2, 17] was 43.8% and the “MCP-1, % of TNF-α control” value [2, 17] was 8.8%. For the same compound, the “IL-6, % of TNF-α control, Media” value [2, 18] was 36.7%, the “IL-8, % of TNF-α control, Media” value [2, 18] was 35.8% and the “MCP-1, % of TNF-α control, Media” value [2, 18] was 8.4%. For the same compound, the inhibition at 10 µM ([3]; ATP 10 μM, n=4, read-out: inhibition, ATP-site competitive assay, cascade p38alpha/ATF-2) was 94%, the “inhibition upon ATP increase (ATP-site competition)” value ([3]; cascade p38alpha/ATF-2, n=4) was “Maintains Inhibition to the Same Level Upon ATP Increase” and the inhibition at 10 µM [3, 19] was 88%. For the same compound, the inhibition at 100 µM [3, 19] was 101%, the inhibition at 10 µM [10] was 92% and the inhibition at 10 µM ([11]; compound 10 μM) was 58%. It also gave an inhibition at 100 µM ([11]; compound 100 μM) of 100% and an inhibition at 10 µM [12] of 25%.
`CC(C)n1nnnc1C(c1ccc(O)cc1)N1CCN(c2nc3ccccc3s2)CC1` (stereo not drawn) [Compound 5] showed an inhibition at 10 µM [3, 13] of 28%.
With `CCOCCCNc1nc2nnnn2c2sc3c(c12)CCN(Cc1ccccc1)C3` [Compound 6] the inhibition at 10 µM [3, 13] was 107%.
With `CCOC(=O)N1CCN(C2=Nc3nnnn3C3CC4CN(Cc5ccccc5)CCC4C23)CC1` (stereo not drawn) [Compound 32] the inhibition at 10 µM [6] was 17%, the inhibition at 10 µM [7] was 21% and the Cell survival ([8]; 10 uM) was 99%. The inhibition at 10 µM [9] was 23%, the “% of inflammatory mediators production in the presence of compounds, IL6” value [2] was 52.4% and the “% of inflammatory mediators production in the presence of compounds, IL8” value [2] was 34.8%. For the same compound, the “% of inflammatory mediators production in the presence of compounds, MCP-1” value [2] was 22.7% and the inhibition at 10 µM [12] was 9%.
`COC(=O)c1ccc(Nc2nc3nonc3nc2N2CCC(Oc3ccc(Cl)cc3)CC2)cc1` [Compound 31] gave an inhibition at 10 µM [6] of 35%, an inhibition at 0.1 µM ([7]; 0.1 uM) of 20% and an inhibition at 1 µM [7] of 43%. For the same compound, the inhibition at 10 µM [7] was 60%, the Cell survival ([8]; 0.1 uM) was 101% and the Cell survival ([8]; 1 uM) was 100%. It also gave a Cell survival ([8]; 10 uM) of 92%, an inhibition at 10 µM [9] of 84% and an inhibition at 10 µM [12] of 27%.

Source: patent US20160194336A1, “P38 MAPK INHIBITORS FOR THE TREATMENT OF INFLAMMATORY DISEASES” (ALLINKY BIOPHARMA, priority 2012, published 2016)
